Results as given in ChEMBL document CHEMBL1770070, “Dibenzylideneacetone analogues as novel Plasmodium falciparum inhibitors” (Bioorg Med Chem Lett, 2011).

What was measured:
Plasmodium falciparum [1] = experiment: Antiplasmodial activity against blood stage of chloroquine-sensitive Plasmodium falciparum 3D7 infected in human O positive erythrocytes after 48 hrs by SYBR green-I based fluorescence assay; format: functional, organism-based; conditions: 3D7, 48 h
[2] = Therapeutic index, TC50 for human HeLa cells to IC50 for chloroquine-resistant Plasmodium falciparum isolate RKL9; format: cell-based; conditions: read-out: TI
[3] = Cytotoxic activity against human HeLa cells after 24 to 48 hrs by MTT assay; format: cell-based; conditions: read-out: TC50 (the source's name)
Plasmodium falciparum [4] = experiment: Resistance index, ratio for IC50 for chloroquine-resistant Plasmodium falciparum isolate RKL9 to IC50 for chloroquine-sensitive Plasmodium falciparum 3D7; format: functional
Plasmodium falciparum [5] = experiment: Antiplasmodial activity against blood stage of chloroquine-resistant Plasmodium falciparum isolate RKL9 infected in human O positive erythrocytes after 48 hrs by SYBR green I-based fluorescence assay; format: functional, organism-based; conditions: isolate RKL9, 48 h

| Structure (SMILES) | IC50 (Plasmodium falciparum [1]) [µM] | selectivity ratio [2] | CC50 [3] [µM] | Ratio IC50 (Plasmodium falciparum [4]) | IC50 (Plasmodium falciparum [5]) [µM] |
| --- | --- | --- | --- | --- | --- |
| O=C(/C=C/c1ccc(Cl)cc1Cl)/C=C/c1ccc(Cl)cc1Cl | 9.94 | > 25 | > 269 | 1.08 | 10.8 |
| COc1ccccc1/C=C/C(=O)/C=C/c1ccccc1OC | 74.7 |  |  |  |  |
| O=C(/C=C/c1ccccc1Cl)/C=C/c1ccccc1Cl | 6.26 | 37 | 231 | 1 | 6.26 |
| Cc1ccc(/C=C/C2=NN(c3ccccc3)C(c3ccc(C)cc3)C2)cc1 (configuration not stated) | > 142 |  |  |  |  |
| O=C(/C=C/c1cccc([N+](=O)[O-])c1)/C=C/c1cccc([N+](=O)[O-])c1 | 38.5 |  |  |  |  |
| O=C(/C=C/c1ccc(F)cc1)/C=C/c1ccc(F)cc1 | 133 |  |  |  |  |
| Fc1ccc(/C=C/C2=NN(c3ccccc3)C(c3ccc(F)cc3)C2)cc1 (configuration not stated) | 9.1 | > 25 | > 277 | 1.21 | 11.1 |
| COc1ccc(/C=C/C(=O)/C=C/c2ccc(OC)c(OC)c2)cc1OC | 1.97 | 166 | 282 | 0.85 | 1.69 |

More lines, main results first:

| IC50 (Plasmodium falciparum [1]) [µM] | Structure (SMILES) | selectivity ratio [2] | CC50 [3] [µM] | Ratio IC50 (Plasmodium falciparum [4]) | IC50 (Plasmodium falciparum [5]) [µM] |
| --- | --- | --- | --- | --- | --- |
| 255 | COc1ccc(/C=C/C(=O)/C=C/c2ccc(OC)cc2)cc1 |  |  |  |  |
| 114 | Cc1ccc(/C=C/C(=O)/C=C/c2ccc(C)cc2)cc1 |  |  |  |  |
| > 308 | C(=C\c1ccccc1)/C1=NN(c2ccccc2)C(c2ccccc2)C1 (configuration not stated) |  |  |  |  |
| 156 | CN(C)c1ccc(/C=C/C(=O)/C=C/c2ccc(N(C)C)cc2)cc1 |  |  |  |  |
| 213 | O=C(/C=C/c1ccccc1)/C=C/c1ccccc1 |  |  |  |  |
| 92.4 | O=C(/C=C/c1ccc(Cl)cc1)/C=C/c1ccc(Cl)cc1 |  |  |  |  |
| > 130 | COc1ccc(/C=C/C2=NN(c3ccccc3)C(c3ccc(OC)cc3)C2)cc1 (configuration not stated) |  |  |  |  |
| 222 | O=C(/C=C/c1ccc(Br)cc1)/C=C/c1ccc(Br)cc1 |  |  |  |  |
